Results reported in US8097625B2, “Combination of sedative and a neurotransmitter modulator, and methods for improving sleep quality and treating depression” (priority 2003, dated 2012).

Columns and labels:
Assay type in all cases: in vivo, human
[1] = test system: subjects with insomnia related to major depressive disorder; assay: DREAMDD clinical study: subjective sleep and daytime function (IVRS sleep diary); details: for Subjective Sleep Latency, Mean (SD) / Subjective Sleep Latency, Median / Subjective Total Sleep Time, Mean (SD) / Subjective Total Sleep Time, Median / Subjective Wake Time After Sleep Onset (WASO), Mean (SD) / Subjective Wake Time After Sleep Onset (WASO), Median: 3 mg nightly + fluoxetine, ITT
Experimental: Depression Response to Eszopiclone in Adults With Major Depressive Disorder (DREAMDD): A Randomized, Double-Blind, Placebo-Controlled, Parallel-Group, 8-Week, Safety and Efficacy Study of Eszopiclone 3 mg Compared to Placebo in Subjects with Insomnia Related to Major Depressive Disorder
This study was a double-blind randomized, placebo-controlled, parallel group study. […] All subjects must satisfy DSM-IV criteria for insomnia related to major depression.
In addition, subjects were randomized at Visit 3 (end of baseline) to treatment with one of the following nightly (at bedtime): eszopiclone (3 mg) or matching placebo.
Primary Analysis: The primary analysis was conducted using the ITT population for the primary efficacy variable, mean WASO during the first week of double-blind medication. This endpoint was computed by averaging the daily WASO values obtained via IVRS from Visit 3 to Visit 4. The analysis was conducted using an analysis of variance model (ANOVA) with treatment and site as fixed effects. The analysis was performed on rank-transformed data, using the SAS MIXED procedure. The cumulative distribution function by treatment was plotted.
Other Secondary Analyses: Analysis of the secondary subjective sleep parameters, the 1, 2, 3, 4, 6, and 8 week post-randomization and double-blind averages of WASO (except week 1 average, which is the primary efficacy endpoint), TST, SL, mean number of awakenings, depth and quality of sleep, daytime alertness, ability to concentrate, physical well-being and ability to function was conducted on rank-transformed data using the same method as for the primary analysis.
Sleep Diary Test: Patients are to call between 6 a.m. and 10 a.m. and answer the following questions. 1) Did you take study medication last night? 2) What time did you go to bed to go to sleep last night? 3) Did you fall asleep last night? (If No, go to question 10) 4) How long did it take you to fall asleep last night? Hours+Minutes? 5) Last night, did you wake up during the night, after falling asleep? 5a) How many times, did you wake up after falling asleep? 5b) After falling asleep for the first time, how much total time did you spend awake during the night? Hours+Minutes? 6) How long did you sleep last night? Hours+Minutes? 7) What time did you get out of bed to rise for the day? 8) What number best describes the quality of your sleep last night? (0=poor and 10=excellent) 9) How would you describe the depth of your sleep last night? (0=very light and 10=very deep) 10) What number best describes how you generally felt yesterday during the day? (0=very sleepy and 10=wide awake and alert) 11) What number best describes your ability to concentrate or think clearly during the day yesterday (0=poor, 10=excellent) 12) What number best describes your sense of physical well being yesterday? (0=poor, 10=excellent) 13) How would you describe your ability to function during the day yesterday? (0=poor and 10=excellent)
Methods: Patients (n=545) met DSM-IV criteria for MDD and insomnia, including reported sleep latency (SL)≧30 min (median 73 min), wake time after sleep onset (WASO) ≧45 min (median 90 min), and total sleep time (TST)≦6.5h (median 294 min). All patients received fluoxetine QAM, and were randomly assigned to double-blind treatment with eszopiclone 3 mg or placebo QHS for 8 weeks. Subjective sleep and daytime function were assessed weekly.

[2] = DREAMDD clinical study: subject disposition; details: of 270 randomized; 3 mg nightly + fluoxetine
Text: Subjects who discontinued early for any reason were replaced.
Subject Disposition and Drug Exposure: Subject disposition was summarized and presented for the number and percentage of subjects, who were screened, randomized, received treatment, completed the study, and discontinued early (including reasons for discontinuations). For each subject, the number of doses taken was computed from the study drug dispensation and accountability CRF records obtained at each visit, assuming that subjects took their study drug medication evenly throughout the between-visits periods. The extent of exposure to the double-blind medication as well as the number of doses taken during the double-blind treatment period was summarized with descriptive statistics and presented by treatment group.

[3] = DREAMDD clinical study: tolerability and adverse events; details: 8 weeks
Experimental: Safety was assessed by physical examinations, a standard 12-lead ECG, vital signs, clinical laboratory assessments and AE reporting.
Adverse Events (AEs): Subjects were queried in a non-leading manner, without specific prompting (e.g., “How are you feeling?”) to assess whether they are suffering from any adverse events.
Adverse Events: All adverse experiences were coded using the COSTART dictionary (Coding Symbols for a thesaurus of Adverse Event Terms; version 5.0, 1995). Treatment emergent adverse experiences was defined as 1) AEs that occurred or worsened (increased in severity and/or frequency) on or after the first dose of study medication, 2) AEs with a missing start data and a stop date on or after the first dose of study medication, or 3) AEs with both a missing start and stop date. Treatment emergent AEs was summarized by treatment and by COSTART body system and preferred term. AEs that occurred within 14 days after treatment discontinuation was considered treatment-emergent AEs.

[4] = each treatment week, p<0.03, 3 mg QHS + fluoxetine QAM, 8 weeks

In the case of CN1CCN(C(=O)OC2c3nccnc3C(=O)N2c2ccc(Cl)cn2)CC1 (single isomer, unassigned; (+)) [Eszopiclone, (+) 6-(5-chloro-2-pyridinyl)-6,7-dihydro-7-oxo-5H-pyrrolo[3,4b]pyrazin-5-yl 4-methylpiperazine-1-carboxylate], the “Subjective Sleep Latency, Mean (SD)” value ([1]; Double-Blind Average) was 53.0 (52.6) Minutes, the “Subjective Sleep Latency, Median” value ([1]; Double-Blind Average) was 39.3 min and the “Subjective Total Sleep Time, Mean (SD)” value ([1]; Double-Blind Average) was 395.5 (66.9) Minutes. For the same compound, the “Subjective Total Sleep Time, Median” value ([1]; Double-Blind Average) was 400.0 min, the “Subjective Wake Time After Sleep Onset (WASO), Mean (SD)” value ([1]; Double-Blind Average) was 72.6 (58.7) Minutes and the “Subjective Wake Time After Sleep Onset (WASO), Median” value ([1]; Double-Blind Average) was 57.4 min. The “Subjective Sleep Latency, Mean (SD)” value ([1]; Week 1) was 62.6 (61.0) Minutes, the “Subjective Sleep Latency, Median” value ([1]; Week 1) was 43.3 min and the “Subjective Total Sleep Time, Mean (SD)” value ([1]; Week 1) was 375.9 (76.5) Minutes. For the same compound, the “Subjective Total Sleep Time, Median” value ([1]; Week 1) was 380.0 min, the “Subjective Sleep Latency, Mean (SD)” value ([1]; Week 2) was 45.0 (52.2) Minutes and the “Subjective Sleep Latency, Median” value ([1]; Week 2) was 30.0 min. The “Subjective Total Sleep Time, Mean (SD)” value ([1]; Week 2) was 393.6 (103.0) Minutes, the “Subjective Total Sleep Time, Median” value ([1]; Week 2) was 397.5 min and the “Subjective Sleep Latency, Mean (SD)” value ([1]; Week 3) was 54.1 (100.9) Minutes. The “Subjective Sleep Latency, Median” value ([1]; Week 3) was 25.0 min, the “Subjective Total Sleep Time, Mean (SD)” value ([1]; Week 3) was 397.3 (88.1) Minutes and the “Subjective Total Sleep Time, Median” value ([1]; Week 3) was 405.0 min. The “Subjective Sleep Latency, Mean (SD)” value ([1]; Week 4) was 40.5 (50.5) Minutes, the “Subjective Sleep Latency, Median” value ([1]; Week 4) was 24.2 min and the “Subjective Total Sleep Time, Mean (SD)” value ([1]; Week 4) was 395.6 (87.3) Minutes. The “Subjective Total Sleep Time, Median” value ([1]; Week 4) was 390.0 min, the “Subjective Wake Time After Sleep Onset (WASO), Mean (SD)” value ([1]; Week 4) was 71.4 (80.3) Minutes and the “Subjective Wake Time After Sleep Onset (WASO), Median” value ([1]; Week 4) was 42.5 min. The “Subjective Sleep Latency, Mean (SD)” value ([1]; Week 6) was 43.8 (77.3) Minutes, the “Subjective Sleep Latency, Median” value ([1]; Week 6) was 20.0 min and the “Subjective Total Sleep Time, Mean (SD)” value ([1]; Week 6) was 408.5 (84.3) Minutes. For the same compound, the “Subjective Total Sleep Time, Median” value ([1]; Week 6) was 420.0 min, the “Subjective Wake Time After Sleep Onset (WASO), Mean (SD)” value ([1]; Week 6) was 76.5 (88.1) Minutes and the “Subjective Wake Time After Sleep Onset (WASO), Median” value ([1]; Week 6) was 46.3 min. The “Subjective Sleep Latency, Mean (SD)” value ([1]; Week 8) was 42.4 (42.3) Minutes, the “Subjective Sleep Latency, Median” value ([1]; Week 8) was 30.0 min and the “Subjective Total Sleep Time, Mean (SD)” value ([1]; Week 8) was 405.9 (80.6) Minutes. The “Subjective Total Sleep Time, Median” value ([1]; Week 8) was 411.4 min, the “Subjective Wake Time After Sleep Onset (WASO), Mean (SD)” value ([1]; Week 8) was 63.8 (74.1) Minutes and the “Subjective Wake Time After Sleep Onset (WASO), Median” value ([1]; Week 8) was 43.1 min. For the same compound, the “WASO compared to placebo” value ([1]; Weeks 1, 3-5, and 7-8, p<0.04, 3 mg QHS + fluoxetine QAM) was “significantly lower”, the “ratings in sleep quality and depth compared to placebo” value ([1]; across the treatment period, p<0.005, 3 mg QHS + fluoxetine QAM) was “higher ratings” and the “sleep latency (SL) compared to placebo” value [1, 4] was “significantly lower”. The “total sleep time (TST) compared to placebo” value [1, 4] was “greater”, the improvement in sleep ([1]; patients with depression-related secondary insomnia, co-administration with fluoxetine) was “rapid and sustained improvement in sleep” and the “ratings of daytime alertness, ability to concentrate, and well-being compared to placebo” value ([1]; p≦0.02, 3 mg QHS + fluoxetine QAM) was “higher ratings”. For the same compound, the “Subject Disposition: Discontinued, AE” value [2] was 17 (6.3) n (%), the “Subject Disposition: Discontinued, Treatment for Insomnia Failure” value [2] was 2 (0.7) n (%) and the “unpleasant taste compared to placebo” value ([3]; 3 mg QHS + fluoxetine QAM) was “more common”. The “drop-outs due to AEs versus placebo” value ([3]; 3 mg nightly + fluoxetine) was “comparable” and the “tolerability of co-administration with fluoxetine” value ([3]; 3 mg nightly + fluoxetine, MDD and insomnia) was “well-tolerated”.
